Here are results for two molecules from article PMC7600264, “Quasi-Irreversible Inhibition of CYP2D6 by Berberine” (Pharmaceutics, 2020).

The target in series [1] is T1, CYP2D6 (Homo sapiens, UniProt P10635). The experiment in a line: Kinetic parameters for MDI of CYP2D6 in pooled HLM.
Procedure: (§1) BBR (0–16 μM) was incubated with pooled HLM (0.2 mg/mL), NADPH (1 mM), and dextromethorphan (5 µM) in phosphate buffer (0.1 M; pH 7.4) for various incubation time periods (0–30 min). The apparent inactivation rate constants (kobs) at various BBR concentrations were estimated by fitting first-order kinetics to the relative enzyme activity vs. incubation time profiles. The rate of enzyme inactivation (kinact) and the inhibition constant (KI) were determined by fitting the following Equation (1) to the kobs values at various inhibitor concentrations Equation (1) [31]:(1) 1/kobs=KI/kinact×1/I+1/kinact
Series [2] addresses T1, CYP2D6. The series can be described thus: in vitro. As to conditions: pH 7.4.
Procedure: (§2) Pre-incubation was performed in pooled HLM (0.2 mg/mL) added with BBR, THB, TFD, or DMB, or rhCYP2D6 (10 pmol/mL) added with BBR, with or without NADPH (1 mM) in phosphate buffer (0.1 M; pH 7.4) for 30 min. Then, the CYP2D6 substrate (5 µM of dextromethorphan) and NADPH (1 mM) were added to the mixture and incubated for another 10 min. All incubations were carried out at 37 °C in a shaking water bath (100 rpm) using eight-well tube strips placed in an 8 × 12 rack, where the final volume of each reaction mixture was 200 µL. […] The enzyme reactions were quenched by adding an aliquot (200 µL) of ice-cold ACN containing CBZ (100 nM) as an IS. The samples were centrifuged, and the concentration of CYP2D6 metabolite (i.e., dextrorphan, produced by O-demethylation of dextromethorphan) in supernatants were analyzed using the LC-MS/MS method described in Section 2.2.
In series [3] the target is recombinant human CYP2D6 (rhCYP2D6) (Homo sapiens, UniProt P10635). The experiment in a line: Metabolism-dependent CYP2D6 inhibition assay (IC50 shift) using rhCYP2D6.
Procedure: as §2
The target of series [4] is T1, CYP2D6. To be noted: microsomes.
Procedure: as §1
Series [5] concerns the target T1, CYP2D6. Details: method as in PMID 25145883. To be noted: HLM; previous study; cited from earlier work.
Series [6] deals with microsomal metabolism of nebivolol. The experiment in a line: BBR-nebivolol interaction in pooled HLM. It is filed as in vitro ADME, human. To be noted: nebivolol 1 µM; pooled HLM 1 mg/mL; BBR 0, 1, 3, 10 µM; 60 min. The procedure:
The HDI between BBR and nebivolol was assessed using pooled HLM, where nebivolol (1 μM) was incubated with HLM (1 mg/mL) and NADPH-generating system (see Section 2.6) in phosphate buffer (0.1 M; pH 7.4) with BBR at various concentrations (0, 1, 3, and 10 μM). The mixture (total volume of 200 µL) was incubated at 37 °C for 60 min in a shaking water bath (100 rpm), following a 5 min of pre-incubation at 37 °C. […] The mass transitions of nebivolol and CBZ were m/z 406 to 151 and m/z 237 to 194, respectively.

On the set-up of series [7]: method as in PMID 19589224, PMID 12562448, PMID 27283523. As to conditions: clinical PK studies; single administration of BBR; highly variable; cited from earlier work.
Series [8] is classed as in vitro ADME, human. As to conditions: precursor 1 µM in pooled HLM with NADPH-generating system, mean ± SD. The procedure: Table 3. Putative M1 metabolite produced in pooled HLM incubated with thalifendine or
Precursor molecules Incubation time (min)a M1 signal at m/z 310 (103 × cps)b
Demethyleneberberine 0 107 ± 3
a Thalifendine or demethyleneberberine (1 μM) was incubated with pooled HLM in the presence of
NADPH-generating system; b Each value represents the mean ± SD for three separate samples. […]

Read-outs that look alike come from different tables or passages of the source.

T1 sequence (P10635 whole entry): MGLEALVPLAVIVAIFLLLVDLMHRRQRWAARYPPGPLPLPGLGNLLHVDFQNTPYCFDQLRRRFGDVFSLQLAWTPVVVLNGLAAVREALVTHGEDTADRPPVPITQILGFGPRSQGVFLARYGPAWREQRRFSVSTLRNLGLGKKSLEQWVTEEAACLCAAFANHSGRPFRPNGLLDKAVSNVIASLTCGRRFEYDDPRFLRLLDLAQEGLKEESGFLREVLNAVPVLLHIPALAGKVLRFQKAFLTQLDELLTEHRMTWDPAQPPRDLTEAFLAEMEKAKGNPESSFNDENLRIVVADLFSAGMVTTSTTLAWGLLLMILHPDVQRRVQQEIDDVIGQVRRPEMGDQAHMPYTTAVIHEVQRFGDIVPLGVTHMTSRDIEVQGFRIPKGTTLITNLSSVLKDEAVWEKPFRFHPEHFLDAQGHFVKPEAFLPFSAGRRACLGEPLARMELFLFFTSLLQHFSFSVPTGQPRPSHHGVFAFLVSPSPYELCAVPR
Chain of recombinant human CYP2D6 (rhCYP2D6) (P10635 whole entry): as above

Consider `COc1ccc2cc3[n+](cc2c1OC)CCc1cc2c(cc1-3)OCO2` [BBR, berberine], for which, on CYP2D6 [1], the Ki (as a rule, a measure of affinity in units of concentration, obtained from inhibition or displacement) turned out to be 4.29 µM. The kinact (in general, the rate constant of inactivation at saturating inhibitor) on CYP2D6 [1] (human, pooled human liver microsomes, pH 7.4, probe dextromethorphan (5 µM)) was 0.000417 s⁻¹. Moreover, the IC50 shift at 10 min at CYP2D6 [2] was approximately 7.5. Further, the IC50 (usually the point on the concentration scale where inhibition reaches its midpoint) in series [3] (IC50 against rhCYP2D6, pre-incubation with NADPH, 30 min pre-incubation with NADPH) is 1.73 µM; in series [3] (IC50 against rhCYP2D6, pre-incubation without NADPH, 30 min pre-incubation in the absence of NADPH), 5.31 µM; at CYP2D6 [5], approximately 23.5 µM. For the same molecule, the “kinact/KI against CYP2D6” value at CYP2D6 [4] came to 97.2 M⁻¹ s⁻¹. Besides, the “Effect on microsomal clearance of nebivolol” value in series [6] is “significantly inhibited”. The Maximum plasma concentration result in series [7] is “less than 1 nM to more than 1 µM”.
Take `COc1ccc2cc3[n+](cc2c1OC)CCc1cc(O)c(O)cc1-3` [DMB, demethyleneberberine]: the figures for the “M1 signal at m/z 310” value in series [8] (incubation time 0 min) and in series [8] (incubation time 30 min) were 107 ± 3 103 × cps and 432 ± 27 103 × cps, respectively.
